Results taken from ChEMBL document CHEMBL1149454, “Synthesis and in vitro antitubercular activity of some 1-[(4-sub)phenyl]-3-(4-{1-[(pyridine-4-carbonyl)hydrazono]ethyl}phenyl)thiourea” (Bioorg Med Chem Lett, 2006).
≈ marks a conversion by molar mass, not a printed value.

Tested on: Mycobacterium tuberculosis
Assay: Antibacterial activity against INH-resistant Mycobacterium tuberculosis
Format: functional

With `C/C(=N/NC(=O)c1ccncc1)c1ccc(N/C(S)=N/c2ccc(C)cc2)cc1` the MIC was 3.86 µM (≈ 1.56 µg/mL).
`C/C(=N/NC(=O)c1ccncc1)c1ccc(N/C(S)=N/c2ccc(F)cc2)cc1` was tested, and the MIC was 0.49 µM (≈ 0.2 µg/mL).
Molecule `COc1ccc(N/C(S)=N\c2ccc(/C(C)=N\NC(=O)c3ccncc3)cc2)cc1` has an MIC of 1.85 µM (≈ 0.776 µg/mL).
`CCOc1ccc(N/C(S)=N\c2ccc(/C(C)=N\NC(=O)c3ccncc3)cc2)cc1` was tested, and the MIC was 1.79 µM (≈ 0.776 µg/mL).
In the case of `C/C(=N/NC(=O)c1ccncc1)c1ccc(N/C(S)=N/c2ccccc2)cc1`, the MIC is reported as 4 µM (≈ 1.56 µg/mL).
In the case of `C/C(=N/NC(=O)c1ccncc1)c1ccc(N/C(S)=N/c2ccc(Br)cc2)cc1`, the MIC is reported as 1.66 µM (≈ 0.778 µg/mL).
For `NNC(=O)c1ccncc1` [ISONIAZID], the MIC was 90.9 µM (≈ 12.5 µg/mL).
